According to US12435060B2, “Acylamino bridged heterocyclic compound, and composition and application thereof” (BEIJING SCITECH-MQ PHARMACEUTICALS LIMITED, priority 2019, dated 2025):

Test system: HT29 cells
Assay: Inhibition of cell necrosis (CCK8 method), induced programmed necrosis of HT29 cells
Assay type: cell-based
Conditions: Homo sapiens, HT-29; rescue from necrosis induced by TNF-α 20 ng/mL, AT-406 1 μM, Z-VAD-FMK 20 μM; 16-20 hours; CCK-8, OD 450 nm
Method in brief: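 Rescue from programmed necrosis was scored by CCK-8 absorbance at 450 nm after 16-20 h of TNF-α (20 ng/mL), AT-406 (1 μM) and Z-VAD-FMK (20 μM) at 37 °C, 5% CO2. HT29 cells had received compound 30 min earlier across nine 4-fold dilutions (top 25000 nM final). IC50 came from % inhibition relative to uninduced and induced-only wells.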

Row | Compound | IC50
1 | CC(C)(O)CCCOc1ccc(Cl)c(-c2ccnc(NC(=O)c3nnc([C@@H](O)c4ccccc4)[nH]3)c2)c1 [Example 478, (S)-N-(4-(2-chloro-5-((4-hydroxy-4-methylpentyl)oxy)phenyl)pyridin-2-yl)-5-(hydroxyl(phenyl)methyl)-4H-1,2,4-triazole-3-carboxamide] | 100 to 1000 nM
2 | Cc1ccc(C2CCOCC2)cc1-c1ccnc(NC(=O)c2nnc(Cc3ccccc3)[nH]2)c1 [Example 479, 5-benzyl-N-(4-(2-methyl-5-(tetrahydro-2H-pyran-4-yl)phenyl)pyridin-2-yl)-4H-1,2,4-triazole-3-carboxamide] | 100 to 1000 nM
3 | COC(=O)C=Cc1ccc(C)c(-c2ccnc(NC(=O)c3nnc(Cc4ccccc4)[nH]3)c2)c1 [Example 480, Methyl 3-(3-(2-(5-benzyl-4H-1,2,4-triazol-3-carboxamido)pyridin-4-yl)-4-methylphenyl)acrylate] | ≤ 100 nM
4 | COC(=O)CCc1ccc(C)c(-c2ccnc(NC(=O)c3nnc(CC4CCCC4)[nH]3)c2)c1 [Example 481, Methyl 3-(3-(2-(5-(cyclopentylmethyl)-4H-1,2,4-triazol-3-carboxamido)pyridin-4-yl)-4-methylphenyl)propionate] | 100 to 1000 nM
5 | Cc1ccc(CCC(C)(C)O)cc1-c1ccnc(NC(=O)c2nnc(Cc3ccccc3)[nH]2)c1 [Example 482, 5-benzyl-N-(4-(5-(3-hydroxyl-3-methylbutyl)-2-methylphenyl)pyridin-2-yl)-4H-1,2,4-triazole-3-carboxamide] | ≤ 100 nM
6 | Cc1ccc(CCCO)cc1-c1ccnc(NC(=O)c2nnc(Cc3ccccc3)[nH]2)c1 [Example 483, 5-benzyl-N-(4-(5-(3-hydroxylpropyl)-2-methylphenyl)pyridin-2-yl)-4H-1,2,4-triazole-3-carboxamide] | 100 to 1000 nM
7 | COCCCC(O)c1ccc(C)c(-c2ccnc(NC(=O)c3nnc(Cc4ccccc4)[nH]3)c2)c1 (stereo not drawn) [Example 484, 5-benzyl-N-(4-(5-(1-hydroxyl-4-methoxybutyl)-2-methylphenyl)pyridin-2-yl)-4H-1,2,4-triazole-3-carboxamide] | ≤ 100 nM
8 | Cc1ccc(C(=O)CC2CCOCC2)cc1-c1ccnc(NC(=O)c2nnc(Cc3ccccc3)[nH]2)c1 [Example 485, 5-benzyl-N-(4-(2-methyl-5-(2-(tetrahydro-2H-pyran-4-yl)acetyl)phenyl)pyridin-2-yl)-4H-1,2,4-triazole-3-carboxamide] | 100 to 1000 nM
9 | Cc1ccc(C(=O)CC2CCOCC2)cc1-c1ccnc(NC(=O)c2nnc(CC3CCCC3)[nH]2)c1 [Example 486, 5-(cyclopentylmethyl)-N-(4-(2-methyl-5-(2-(tetrahydro-2H-pyran-4-yl)acetyl)phenyl)pyridin-2-yl)-4H-1,2,4-triazole-3-carboxamide] | ≤ 100 nM
10 | Cc1ccc(C(=O)NCCC(C)(C)O)cc1-c1ccnc(NC(=O)c2nnc(Cc3ccccc3)[nH]2)c1 [Example 487, 5-benzyl-N-(4-(5-((3-hydroxyl-3-methylbutyl)carbamoyl)-2-methylphenyl)pyridin-2-yl)-4H-1,2,4-triazole-3-carboxamide] | 100 to 1000 nM
11 | Cc1ccc(C(=O)NCCC(C)(C)O)cc1-c1ccnc(NC(=O)c2nnc(CC3CCCC3)[nH]2)c1 [Example 488, 5-(cyclopentylmethyl)-N-(4-(5-((3-hydroxyl-3-methylbutyl)carbamoyl)-2-methylphenyl)pyridin-2-yl)-4H-1,2,4-triazole-3-carboxamide] | ≤ 100 nM
12 | Cc1ccc(NC(=O)CCC(C)(C)O)cc1-c1ccnc(NC(=O)c2nnc(Cc3ccccc3)[nH]2)c1 [Example 489, 5-benzyl-N-(4-(5-(4-hydroxy-4-methylvaleramido)-2-methylphenyl)pyridin-2-yl)-4H-1,2,4-triazole-3-carboxamide] | 100 to 1000 nM
13 | Cc1ccc(NC(=O)CCC(C)(C)O)cc1-c1ccnc(NC(=O)c2nnc(CC3CCCC3)[nH]2)c1 [Example 490, 5-(cyclopentylmethyl)-N-(4-(5-(4-hydroxy-4-methylvaleramido)-2-methylphenyl)pyridin-2-yl)-4H-1,2,4-triazole-3-carboxamide] | ≤ 100 nM
14 | Cc1ccc(OCCCC(C)(C)O)cc1-c1ccnc(NC(=O)c2nnc(Cc3cccc(Cl)c3F)[nH]2)c1 [Example 491, 5-(3-chloro-2-fluorobenzyl)-N-(4-(5-((4-hydroxy-4-methylpentyl)oxy)-2-methylphenyl)pyridin-2-yl)-4H-1,2,4-triazole-3-carboxamide] | 100 to 1000 nM
15 | Cc1ccc(OCCCC(C)(C)O)cc1-c1cc(NC(=O)c2nnc(Cc3ccccc3F)[nH]2)ncc1F [Example 492, N-(5-fluoro-4-(5-((4-hydroxy-4-methylpentyl)oxy)-2-methylphenyl)pyridin-2-yl)-5-(2-fluorobenzyl)-4H-1,2,4-triazole-3-carboxamide] | ≤ 100 nM
16 | Cc1ccc(OCCCC(C)(C)O)cc1-c1cc(NC(=O)c2nnc(CC3CCCCC3)[nH]2)ncc1F [Example 493, 5-(cyclohexylmethyl)-N-(5-fluoro-4-(5-((4-hydroxy-4-methylpentyl)oxy)-2-methylphenyl)pyridin-2-yl)-4H-1,2,4-triazole-3-carboxamide] | ≤ 100 nM
17 | Cc1ccc(OCCCCC(C)(C)O)cc1-c1cc(NC(=O)c2nnc(Cc3ccccc3F)[nH]2)ncc1F [Example 494, N-(5-fluoro-4-(5-((5-hydroxyl-5-methylhexyl)oxy)-2-methylphenyl)pyridin-2-yl)-5-(2-fluorobenzyl)-4H-1,2,4-triazole-3-carboxamide] | ≤ 100 nM
18 | Cc1ccc(OCCCCC(C)(C)O)cc1-c1cc(NC(=O)c2nnc(CC3CCCCC3)[nH]2)ncc1F [Example 495, 5-(cyclohexylmethyl)-N-(5-fluoro-4-(5-((5-hydroxyl-5-methylhexyl)oxy)-2-methylphenyl)pyridin-2-yl)-4H-1,2,4-triazole-3-carboxamide] | ≤ 100 nM
19 | Cc1ccc(OCC2CCOCC2)cc1-c1cc(NC(=O)c2nnc(Cc3ccccc3F)[nH]2)ncc1F [Example 496, N-(5-fluoro-4-(2-methyl-5-((tetrahydro-2H-pyran-4-yl)methoxy)phenyl)pyridin-2-yl)-5-(2-fluorobenzyl)-4H-1,2,4-triazole-3-carboxamide] | ≤ 100 nM
20 | Cc1ccc(OCC2CCOCC2)cc1-c1cc(NC(=O)c2nnc(CC3CCCCC3)[nH]2)ncc1F [Example 497, 5-(cyclohexylmethyl)-N-(5-fluoro-4-(2-methyl-5-((tetrahydro-2H-pyran-4-yl)methoxy)phenyl)pyridin-2-yl)-4H-1,2,4-triazole-3-carboxamide] | ≤ 100 nM
21 | Cc1ccc(OCCC2CCOCC2)cc1-c1cc(NC(=O)c2nnc(Cc3ccccc3F)[nH]2)ncc1F [Example 498, N-(5-fluoro-4-(2-methyl-5-(2-(tetrahydro-2H-pyran-4-yl)ethoxy)phenyl)pyridin-2-yl)-5-(2-fluorobenzyl)-4H-1,2,4-triazole-3-carboxamide] | ≤ 100 nM
22 | Cc1ccc(OCCC2CCOCC2)cc1-c1cc(NC(=O)c2nnc(CC3CCCCC3)[nH]2)ncc1F [Example 499, N-(5-fluoro-4-(2-methyl-5-(2-(tetrahydro-2H-pyran-4-yl)ethoxy)phenyl)pyridin-2-yl)-5-(cyclohexylmethyl)-4H-1,2,4-triazole-3-carboxamide] | ≤ 100 nM
23 | CC(C)(O)CCCCOc1ccc(F)c(-c2ccnc(NC(=O)c3nnc(Cc4ccccc4F)[nH]3)c2)c1 [Example 500, N-(4-(2-fluoro-5-((5-hydroxyl-5-methylhexyl)oxy)phenyl)pyridin-2-yl)-5-(2-fluorobenzyl)-4H-1,2,4-triazole-3-carboxamide] | 100 to 1000 nM
24 | CC(C)(O)CCCOc1ccc(Cl)c(-c2ccnc(NC(=O)c3nnc(Cc4ccc(F)c(Cl)c4F)[nH]3)c2)c1 [Example 501, 5-(3-chloro-2,4-difluorobenzyl)-N-(4-(2-chloro-5-((4-hydroxy-4-methylpentyl)oxy)phenyl)pyridin-2-yl)-4H-1,2,4-triazole-3-carboxamide] | 100 to 1000 nM
25 | CC(C)(O)CCCCOc1ccc(Cl)c(-c2cc(NC(=O)c3nnc(CC4CCCCC4)[nH]3)ncc2F)c1 [Example 502, N-(4-(2-chloro-5-((5-hydroxyl-5-methylhexyl)oxy)phenyl)-5-fluoropyridin-2-yl)-5-(cyclohexylmethyl)-4H-1,2,4-triazole-3-carboxamide] | ≤ 100 nM
26 | CC(C)(O)CCCOc1ccc(Cl)c(-c2ccnc(NC(=O)c3nnc(Cc4cc(C5CC5)ccc4F)[nH]3)c2)c1 [Example 503, N-(4-(2-chloro-5-((4-hydroxy-4-methylpentyl)oxy)phenyl)pyridin-2-yl)-5-(5-cyclopropyl-2-fluorobenzyl)-4H-1,2,4-triazole-3-carboxamide] | 1000 to 10000 nM
27 | CC(C)(O)CCCOc1ccc(Cl)c(-c2ccnc(NC(=O)c3nnc(Cc4cc(-c5ccccc5)ccc4F)[nH]3)c2)c1 [Example 504, N-(4-(2-chloro-5-((4-hydroxy-4-methylpentyl)oxy)phenyl)pyridin-2-yl)-5-((4-fluoro-[1,1′-biphenyl]-3-yl)methyl)-4H-1,2,4-triazole-3-carboxamide] | 100 to 1000 nM
